Values of other authors, collected in patent publication US7534449B2, “Targeted and high density drug loaded polymeric materials” (Yale University, priority 2004, dated 2009).

pKa: 7.6
solubility (aqueous environments): limited solubility
SMILES: COc1cccc2c1C(=O)c1c(O)c3c(c(O)c1C2=O)C[C@@](O)(C(=O)CO)C[C@@H]3O[C@H]1C[C@H](N)[C@H](O)[C@H](C)O1 [Dox, doxorubicin]
